Data published in PubChem BioAssay (NCI).
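Briefly, cells in 96-well plates were exposed to five compound concentrations for 48 h, and endpoints were estimated by linear interpolation. Here, GI50 denotes the concentration required for 50% inhibition of growth. Definition used: TGI = concentration required for complete inhibition of growth.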

Assays:
Test in all cases: NCI tumour cell line growth inhibition, 48 h
EKVX NSCLC = system: EKVX NSCLC
HCC-2998 colon = system: HCC-2998 colon
IGROV1 ovarian = system: IGROV1 ovarian
LOX IMVI melanoma = system: LOX IMVI melanoma
MOLT-4 leukemia = system: MOLT-4 leukemia
NCI-H226 lung = system: NCI-H226 lung
NCI-H522 lung = system: NCI-H522 lung
OVCAR-8 ovarian = system: OVCAR-8 ovarian
SNB-75 CNS = system: SNB-75 CNS
U251 CNS = system: U251 CNS

Row | SMILES | TGI (EKVX NSCLC) | TGI (HCC-2998 colon) | TGI (IGROV1 ovarian) | TGI (LOX IMVI melanoma) | TGI (MOLT-4 leukemia) | TGI (NCI-H226 lung) | TGI (NCI-H522 lung) | TGI (OVCAR-8 ovarian) | TGI (SNB-75 CNS) | TGI (U251 CNS) | GI50 (EKVX NSCLC) | GI50 (HCC-2998 colon) | GI50 (IGROV1 ovarian) | GI50 (LOX IMVI melanoma) | GI50 (MOLT-4 leukemia) | GI50 (NCI-H226 lung) | GI50 (NCI-H522 lung) | GI50 (SNB-75 CNS) | GI50 (OVCAR-8 ovarian) | GI50 (U251 CNS)
1 | Nc1ccc2c(c1)C1=NNC(=O)CC1C2 (stereo unspecified) | > 100 µM | > 100 µM | > 100 µM | > 100 µM | > 100 µM | > 100 µM | > 100 µM | > 100 µM | > 100 µM | > 100 µM |  |  |  |  |  |  |  |  |  | 
2 | COc1cc(-c2n/c(=C\c3c(O)[nH]c4ccc(Cl)cc34)cc3c2=Nc2ccccc2-3)cc(OC)c1OC | 18.7 µM | 11 µM | 4.09 µM | 1.89 µM | 3.64 µM | 12 µM | 4.09 µM |  | 4.84 µM |  | 3.59 µM | 2.98 µM | 0.685 µM | 0.501 µM | 0.679 µM | 3 µM | 1.79 µM | 1.72 µM |  | 
3 | CN1CCN(c2ccc(-c3ccc4ncc(C#N)c(Nc5ccc(F)c(Cl)c5)c4c3)cc2)CC1 | 41.2 µM | 15.8 µM | 10.5 µM | 11.5 µM | 5.53 µM | 34.3 µM | 4.02 µM | 14.5 µM | 15.9 µM | 7.47 µM | 0.838 µM | 3.26 µM | 0.321 µM | 2.78 µM | 1.97 µM | 10.2 µM | 1.15 µM | 2.33 µM | 2.74 µM | 2.3 µM
4 | [N-]=[N+]=Nc1ccc(NCCCCCC(=O)ON2C(=O)CCC2=O)c([N+](=O)[O-])c1 | > 100 µM |  | > 100 µM | > 100 µM | > 100 µM | > 100 µM | > 100 µM | > 100 µM | > 100 µM | > 100 µM |  |  |  |  |  |  |  |  |  | 
5 | C=C(C)[C@@H]1CC[C@]2(C)CC[C@]3(C)[C@H](CC[C@@H]4[C@@]5(C)CC[C@H](OC(=O)c6ccccc6)C(C)(C)[C@@H]5CC[C@]43C)[C@@H]12 | > 100 µM | > 100 µM | > 100 µM | > 100 µM | > 100 µM | > 100 µM | > 100 µM | > 100 µM | > 100 µM | > 100 µM |  |  |  |  |  |  |  |  |  | 
6 | O=C(N/C(=C\c1ccccc1[N+](=O)[O-])c1nc2ccccc2[nH]1)c1ccccc1 |  | > 100 µM | > 100 µM |  | > 100 µM |  | > 100 µM | > 100 µM |  | > 100 µM |  |  |  |  |  |  |  |  |  | 
7 | COc1ccc(NS(=O)c2ccc(-c3ccccc3)cc2)cc1 (stereo unspecified) | > 100 µM | > 100 µM | > 100 µM | > 100 µM | > 100 µM | > 100 µM | > 100 µM | > 100 µM | 62.5 µM | > 100 µM |  |  |  |  |  |  |  |  |  | 
8 | Cc1nc(Cl)c(Cl)c(Cl)n1 | 1.17 µM | 7.04 µM | 0.344 µM | 0.585 µM | < 0.025 µM | 6.04 µM | 3.88 µM | 2 µM | 2.7 µM | 4.07 µM |  |  |  |  |  |  |  |  |  | 
9 | O=c1[nH][nH]c(=O)[nH]1 | > 100 µM | > 100 µM | > 100 µM | > 100 µM | > 100 µM | > 100 µM | > 100 µM |  | > 100 µM | > 100 µM |  |  |  |  |  |  |  |  |  | 
10 | CC1SC(c2ccccc2)N(Nc2c3ccccc3nc3ccccc23)C1=O (stereo unspecified) | > 100 µM | > 100 µM | > 100 µM | > 100 µM | > 100 µM | > 100 µM | > 100 µM | > 100 µM | > 100 µM | > 100 µM |  |  |  |  |  |  |  |  |  | 
11 | CNC(C)Cc1ccccc1O (stereo unspecified) | > 100 µM | > 100 µM | > 100 µM | > 100 µM | > 100 µM | > 100 µM | > 100 µM | > 100 µM | > 100 µM | > 100 µM |  |  |  |  |  |  |  |  |  | 
12 | CO[C@H]1[C@@H](O)[C@@H](C)O[C@@H](O[C@H]2CC[C@@]3(C)[C@H](CC[C@@H]4[C@@H]3CC[C@]3(C)[C@@H](C5=CC(=O)OC5)CC[C@]43O)C2)[C@@H]1O | 0.0106 µM | 0.173 µM | 0.0848 µM | 0.0455 µM | 0.436 µM | 0.135 µM | 0.0194 µM | 0.0444 µM | 0.0271 µM | 0.0415 µM |  |  |  |  |  |  |  |  |  | 
13 | CCn1nc(C)c2c1C(=O)NC(C)C(=O)N2 (stereo unspecified) | > 100 µM |  | > 100 µM |  |  |  | > 100 µM | > 100 µM | > 100 µM | > 100 µM |  |  |  |  |  |  |  |  |  | 
14 | CN(C)CCNc1ccc2ncnc3c2c1C(=O)c1ccccc1-3 | 5.67 µM | 2.92 µM | 0.574 µM | 10.5 µM | 2.31 µM | 3.74 µM | 0.982 µM | 10.5 µM | 6.96 µM | 17.9 µM |  |  |  |  |  |  |  |  |  | 
